Source: patent US20240002391A1, “4-ALKOXYPYRROLO[2,1-F][1,2,4]TRIAZINES AND PREPARATION AND USES THEREOF” (BioSplice Therapeutics, Inc., priority 2022, published 2024)

These compounds were tested against recombinant DYRK1A kinase (Homo sapiens (Human), UniProt Q13627) (assay: DYRK1A kinase assay (Ser/Thr 18 peptide Z-lyte FRET)). Conditions: DYRK1A kinase activity, Z-lyte Ser/Thr 18 peptide, 15 μM ATP; method text calls the value IC50; read-out: EC50 (the source's name).
Type: biochemical
Protocol: Representative compounds were screened using the assay procedure for DYRK1A kinase activity as described below.
Each compound was dissolved in DMSO as a 10 mM stock and used to prepare compound source plates. Serial dilution (1:3, 11-point dose-response curves from 10 μM to 0.00016 μM) and compound transfer was performed using the ECHO 550 (Labcyte, Sunnyvale, CA) into 1536-well black-walled round bottom plates (Coming).
The DYRK1A kinase assay was run using the Ser/Thr 18 peptide Z-lyte assay kit according to manufacturer's instructions (Life Technologies-a Division of Thermo-Fisher). This is a non-radioactive assay using fluorescence resonance energy transfer (FRET) between coumarin and fluorescein to detect kinase activity which is represented as a ratio of coumarin emission/fluorescein emission.
Briefly, recombinant DYRK1A kinase, ATP and Ser/Thr peptide 18 were prepared in 1X Kinase buffer to final concentrations of 0.25 μg/mL, 15 μM, and 4 μM respectively. The mixture was allowed to incubate with the representative compounds for one hour at room temperature. All reactions were performed in duplicate. Unphosphorylated (“0% Control”) and phosphorylated (“100% control”) forms of Ser/Thr 18 served as control reactions. Additionally, an 11-point dose-response curve of Staurosporine (luM top) was run to serve as a positive compound control.
After incubation, Development Reagent A was diluted in Development Buffer then added to the reaction and allowed to further incubate for one hour at room temperature. The plate was read at Ex 400 Em 455 to detect the coumarin signal and Ex 400 Em 520 to measure the signal (EnVision Multilabel Plate Reader, PerkinElmer).
The Emission ratio (Em) was calculated as a ratio of the coumarin (C) emission signal (at 445 nm)/Fluorescein (F) emission signal (at 520 nm). The percent phosphorylation was then calculated using the following formula: [1−((Em ratio X F100%)-C100%)/((C0%-C100%) +(Em ratio X (F100%−F0%)))]. Dose-response curves were generated, and inhibitory concentration (IC50) values were calculated using non-linear regression curve fit in the Dotmatics' Studies Software (Bishops Stortford, UK).

Structure (SMILES)	IC50 [nM]
COc1nc(N[C@@H]2CCN(C(C)=O)C[C@@H]2F)nn2ccc(-c3cc(F)c4nc(C)n(CC(F)F)c4c3)c12 [Compound 520, 1-((3S,4R)-4-((5-(1-(2,2-Difluoroethyl)-4-fluoro-2-methyl-1H-benzo[d]imidazol-6-yl)-4-methoxypyrrolo[2,1-f][1,2,4]triazin-2-yl)amino)-3-fluoropiperidin-1-yl)ethan-1-one]	3
COc1nc(N[C@@H]2CCN(C3COC3)CC2(F)F)nn2ccc(-c3cnc4nccn4c3)c12 [Compound 968, (R)—N-(3,3-Difluoro-1-(oxetan-3-yl)piperidin-4-yl)-5-(imidazo[1,2-a]pyrimidin-6-yl)-4-methoxypyrrolo[2,1-f][1,2,4]triazin-2-amine]	2.8
COCC[C@@H](C)Nc1nc(OC)c2c(-c3cnc4nccn4c3)ccn2n1 [Compound 926, (R)-5-(Imidazo[1,2-a]pyrimidin-6-yl)-4-methoxy-N-(4-methoxybutan-2-yl)pyrrolo[2,1-f][1,2,4]triazin-2-amine]	5.6
COc1nc(NC2CCC3(CC2)CC3)nn2ccc(-c3cnc4nccn4c3)c12 [Compound 977, 5-(Imidazo[1,2-a]pyrimidin-6-yl)-4-methoxy-N-(spiro[2.5]octan-6-yl)pyrrolo[2,1-f][1,2,4]triazin-2-amine]	1.8
CCn1nnc2ccc(-c3ccn4nc(N[C@H]5CCN(C6COC6)C[C@H]5F)nc(OC)c34)cc21 [Compound 646, 5-(1-Ethyl-1H-benzo[d][1,2,3]triazol-6-yl)-N-((3R,4S)-3-fluoro-1-(oxetan-3-yl)piperidin-4-yl)-4-methoxypyrrolo[2,1-f][1,2,4]triazin-2-amine]	3.4
COc1nc(NC2CCC3(CC2)COC3)nn2ccc(-c3ccn4nccc4c3)c12 [Compound 395, 4-Methoxy-5-(pyrazolo[1,5-a]pyridin-5-yl)-N-(2-oxaspiro[3.5]nonan-7-yl)pyrrolo[2,1-f][1,2,4]triazin-2-amine]	6.2
COc1nc(N[C@H]2CC[C@@H](OC)CC2)nn2ccc(-c3cnc4nccn4c3)c12 [Compound 243, 5-(imidazo[1,2-a]pyrimidin-6-yl)-4-methoxy-N-(cis-4-methoxycyclohexyl)pyrrolo[2,1-f][1,2,4]triazin-2-amine]	1.2
COc1nc(N[C@@H]2CCN(C3COC3)CC2(F)F)nn2ccc(-c3cc(F)c4nc(C)n(CC(F)F)c4c3)c12 [Compound 164, (R)—N-(3,3-Difluoro-1-(oxetan-3-yl)piperidin-4-yl)-5-(1-(2,2-difluoroethyl)-4-fluoro-2-methyl-1H-benzo[d]imidazol-6-yl)-4-methoxypyrrolo[2,1-f][1,2,4]triazin-2-amine]	2.1
COc1nc(N[C@@H]2CCN(C3COC3)C[C@H]2F)nn2ccc(-c3cc(F)c4nc(C)n(CC(F)F)c4c3)c12 [Compound 159, 5-(1-(2,2-Difluoroethyl)-4-fluoro-2-methyl-1H-benzo[d]imidazol-6-yl)-N-((3R,4R)-3-fluoro-1-(oxetan-3-yl)piperidin-4-yl)-4-methoxypyrrolo[2,1-f][1,2,4]triazin-2-amine]	2.9
COc1nc(NC2CCOC(C)(C)C2)nn2ccc(-c3cnc4nccn4c3)c12 (centres unmarked) [Compound 1148, N-(2,2-Dimethyltetrahydro-2H-pyran-4-yl)-5-(imidazo[1,2-a]pyrimidin-6-yl)-4-methoxypyrrolo[2,1-f][1,2,4]triazin-2-amine]	0.6
CN1C[C@H](F)[C@H](Nc2nc(O)c3c(-c4cnc5nccn5c4)ccn3n2)C1 [Compound 261, 2-(((3R,4S)-4-Fluoro-1-methylpyrrolidin-3-yl)amino)-5-(imidazo[1,2-a]pyrimidin-6-yl)pyrrolo[2,1-f][1,2,4]triazin-4-ol]	153
COc1nc(N[C@H]2C[C@](C)(NC(C)=O)C2)nn2ccc(-c3cnc4nccn4c3)c12 [Compound 935, N-((1r,3r)-3-((5-(Imidazo[1,2-a]pyrimidin-6-yl)-4-methoxypyrrolo[2,1-f][1,2,4]triazin-2-yl)amino)-1-methylcyclobutyl)acetamide]	1.2

The next lines start with the values.

IC50 [nM]	Structure (SMILES)
2	CCC(=O)N[C@]1(C)C[C@H](Nc2nc(OC)c3c(-c4ccc5nccnc5c4)ccn3n2)C1 [Compound 335, N-(cis-3-((4-Methoxy-5-(quinoxalin-6-yl)pyrrolo[2,1-f][1,2,4]triazin-2-yl)amino)-1-methylcyclobutyl)propionamide]
3.2	COc1nc(N[C@H]2CC[C@H](C(C)(C)O)CC2)nn2ccc(-c3ccc4nccnc4c3)c12 [Compound 342, 2-(trans-4-((4-Methoxy-5-(quinoxalin-6-yl)pyrrolo[2,1-f][1,2,4]triazin-2-yl)amino)cyclohexyl)propan-2-ol]
1.2	COc1nc(N[C@@H]2C[C@@H]3CN(C(C)=O)C[C@@H]3C2)nn2ccc(-c3ccc4nccnc4c3)c12 [Compound 388, 1-((3aR,5r,6aS)-5-((4-Methoxy-5-(quinoxalin-6-yl)pyrrolo[2,1-f][1,2,4]triazin-2-yl)amino)hexahydrocyclopenta[c]pyrrol-2(1H)-yl)ethan-1-one]
1.5	CCO[C@H]1C[C@@H](Nc2nc(OC)c3c(-c4cnc5nccn5c4)ccn3n2)C1 [Compound 931, N-(cis-3-Ethoxycyclobutyl)-5-(imidazo[1,2-a]pyrimidin-6-yl)-4-methoxypyrrolo[2,1-f][1,2,4]triazin-2-amine]
2.2	COc1nc(N[C@H]2C[C@H](C(C)(C)O)C2)nn2ccc(-c3ccc4ncccc4c3)c12 [Compound 287, 2-(trans-3-((4-methoxy-5-(quinolin-6-yl)pyrrolo[2,1-f][1,2,4]triazin-2-yl)amino)cyclobutyl)propan-2-ol]
1.9	COc1nc(NC2CCC3(CC2)CN(C(C)=O)C3)nn2ccc(-c3ccc4nnn(C)c4c3)c12 [Compound 229, 1-(7-((4-Methoxy-5-(1-methyl-1H-benzo[d][1,2,3]triazol-6-yl)pyrrolo[2,1-f][1,2,4]triazin-2-yl)amino)-2-azaspiro[3.5]nonan-2-yl)ethan-1-one]
4.1	COc1nc(N[C@H]2CCN(CCF)C[C@H]2F)nn2ccc(-c3ccc4ncccc4c3)c12 [Compound 314, N-((3R,4S)-3-Fluoro-1-(2-fluoroethyl)piperidin-4-yl)-4-methoxy-5-(quinolin-6-yl)pyrrolo[2,1-f][1,2,4]triazin-2-amine]
4.4	COc1nc(NC2CC3CCC(C2)O3)nn2ccc(-c3cnc4nccn4c3)c12 (centres unmarked) [Compound 1150, N-(8-Oxabicyclo[3.2.1]octan-3-yl)-5-(imidazo[1,2-a]pyrimidin-6-yl)-4-methoxypyrrolo[2,1-f][1,2,4]triazin-2-amine]
3.5	COc1nc(N[C@H]2C[C@](C)(C(=O)N3CCCC3)C2)nn2ccc(-c3ccc4nnn(C)c4c3)c12 [Compound 222, (trans-3-((4-methoxy-5-(1-methyl-1H-benzo[d][1,2,3]triazol-6-yl)pyrrolo[2,1-f][1,2,4]triazin-2-yl)amino)-1-methylcyclobutyl)(pyrrolidin-1-yl)methanone]
1.3	CCC(=O)N[C@]1(C)C[C@@H](Nc2nc(OC)c3c(-c4ccc5nnn(C)c5c4)ccn3n2)C1 [Compound 207, N-(trans-3-((4-Methoxy-5-(1-methyl-1H-benzo[d][1,2,3]triazol-6-yl)pyrrolo[2,1-f][1,2,4]triazin-2-yl)amino)-1-methylcyclobutyl)propionamide]
2.3	COc1nc(N[C@H]2C[C@](C)(O)C2)nn2ccc(-c3ccc4nccnc4c3)c12 [Compound 330, trans-3-((4-Methoxy-5-(quinoxalin-6-yl)pyrrolo[2,1-f][1,2,4]triazin-2-yl)amino)-1-methylcyclobutan-1-ol]
0.5	COc1nc(N[C@H]2C[C@@H](OC)C2)nn2ccc(-c3cnc4nccn4c3)c12 [Compound 236, 5-(Imidazo[1,2-a]pyrimidin-6-yl)-4-methoxy-N-(cis-3-methoxycyclobutyl)pyrrolo[2,1-f][1,2,4]triazin-2-amine]
1.1	COc1nc(N[C@H]2C[C@@](C)(NC(C)=O)C2)nn2ccc(-c3ccc4nccnc4c3)c12 [Compound 333, N-(cis-3-((4-Methoxy-5-(quinoxalin-6-yl)pyrrolo[2,1-f][1,2,4]triazin-2-yl)amino)-1-methylcyclobutyl)acetamide]
0.3	COc1nc(N[C@H]2CC[C@H](O)CC2)nn2ccc(-c3ccc4nnn(CC(F)F)c4c3)c12 [Compound 719, trans-4-((5-(1-(2,2-Difluoroethyl)-1H-benzo[d][1,2,3]triazol-6-yl)-4-methoxypyrrolo[2,1-f][1,2,4]triazin-2-yl)amino)cyclohexan-1-ol]
